Test results as given in patent publication US10980809B2, “Urea-substituted aromatic ring-linked dioxane-quinazoline and -linked dioxane-quinoline compounds, preparation method therefor and use thereof” (BEIJING SCITECH-MQ PHARMACEUTICALS LIMITED, priority 2017, dated 2021).

Target: VEGFR-2 kinase (Homo sapiens (Human), UniProt P35968)
Test: Test of small molecule compounds for inhibiting the activity of VEGFR-2 kinase
Assay type: biochemical
Conditions: class symbols A-D
Method: Test of Small Molecule Compounds for Inhibiting the Activity of VEGFR-2 Kinase
The test was carried out as follows:
2. 2.5 μl of the gradient-diluted compounds was taken with a transfer pipette to a 384-well plate,
3. Addition of enzyme: 5 μl of 2×VEGFR-2 kinase was taken with a transfer pipette to the corresponding reaction well of the 384-well plate, which was mixed and pre-reacted at room temperature for 30 min,
5. Negative control: 2.5 μl/well 4× substrate/ATP Mix and 7.5 μl 1× Kinase Assay Buffer were added to the wells of the 384-well plate,
Positive control: 2.5 μl/well 4× substrate/ATP Mix, 2.5 μl/well 1× Kinase Assay Buffer containing 4% DMSO, and 5 μl/well 2×VEGFR-2 solution were added to the 384-well plate. The final concentration of DMSO in the reaction system is […],
6. The mixture was mixed well and then centrifuged and reacted at room temperature in dark for 60 min,
9. The 384-well plate was placed into the Envision plate reader and the signal was detected using the appropriate program,

Sequence of VEGFR-2 kinase (P35968 20-1356): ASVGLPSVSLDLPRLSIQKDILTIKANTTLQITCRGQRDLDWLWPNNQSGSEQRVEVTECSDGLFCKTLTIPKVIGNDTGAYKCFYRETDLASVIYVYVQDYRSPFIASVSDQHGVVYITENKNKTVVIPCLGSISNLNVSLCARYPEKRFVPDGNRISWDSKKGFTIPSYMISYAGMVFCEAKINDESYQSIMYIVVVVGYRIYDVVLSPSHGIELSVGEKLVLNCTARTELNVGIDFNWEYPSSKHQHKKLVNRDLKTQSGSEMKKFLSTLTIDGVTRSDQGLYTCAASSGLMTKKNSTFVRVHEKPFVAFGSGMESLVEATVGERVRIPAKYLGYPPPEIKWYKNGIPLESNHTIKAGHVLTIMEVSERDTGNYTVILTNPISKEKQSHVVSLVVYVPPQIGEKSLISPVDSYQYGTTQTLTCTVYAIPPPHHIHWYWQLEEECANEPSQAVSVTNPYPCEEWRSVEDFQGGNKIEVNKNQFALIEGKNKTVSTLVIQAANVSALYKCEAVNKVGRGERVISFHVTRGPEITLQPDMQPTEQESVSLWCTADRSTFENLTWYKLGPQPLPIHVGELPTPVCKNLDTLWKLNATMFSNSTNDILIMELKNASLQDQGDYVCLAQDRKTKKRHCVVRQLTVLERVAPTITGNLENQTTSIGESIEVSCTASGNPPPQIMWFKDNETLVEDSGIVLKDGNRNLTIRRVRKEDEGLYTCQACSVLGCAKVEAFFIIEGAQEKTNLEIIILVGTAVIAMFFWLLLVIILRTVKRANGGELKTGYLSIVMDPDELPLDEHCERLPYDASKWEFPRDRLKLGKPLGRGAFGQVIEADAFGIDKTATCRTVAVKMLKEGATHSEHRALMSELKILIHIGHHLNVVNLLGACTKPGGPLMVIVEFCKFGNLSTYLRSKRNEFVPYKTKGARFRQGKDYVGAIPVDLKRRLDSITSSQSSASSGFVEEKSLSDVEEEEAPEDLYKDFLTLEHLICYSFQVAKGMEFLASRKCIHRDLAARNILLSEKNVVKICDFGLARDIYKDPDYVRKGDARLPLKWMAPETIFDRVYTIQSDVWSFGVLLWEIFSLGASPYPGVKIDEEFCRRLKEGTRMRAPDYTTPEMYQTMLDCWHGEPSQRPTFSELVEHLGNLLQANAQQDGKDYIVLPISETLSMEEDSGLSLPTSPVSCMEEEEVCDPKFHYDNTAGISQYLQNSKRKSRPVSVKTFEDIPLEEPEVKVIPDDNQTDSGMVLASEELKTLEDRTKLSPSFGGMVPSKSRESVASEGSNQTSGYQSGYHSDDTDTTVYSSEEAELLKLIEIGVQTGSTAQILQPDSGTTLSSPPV

Row | SMILES | IC50 [nM]
1 | COc1cc2ncnc(Nc3ccc(NC(=O)NC4CC4)cc3)c2c2c1OCCO2 [Example 1, 1-(4-((5-methoxy-2,3-dihydro-[1,4]dioxino[2,3-f]quinazolin-10-yl)amino)phenyl)-3-cyclopropylurea] | 50 to 500
2 | COc1cc2ncnc(Nc3ccc(NC(=O)NC4CC4)c(Cl)c3)c2c2c1OCCO2 [Example 2, 1-(2-chloro-4-((5-methoxy-2,3-dihydro-[1,4]dioxino[2,3-f]quinazolin-10-yl)amino)phenyl)-3-cyclopropylurea] | < 50
3 | COc1cccc(NC(=O)Nc2ccc(Nc3ncnc4cc(OC)c5c(c34)OCCO5)cc2)c1 [Example 3, 1-(4-((5-methoxy-2,3-dihydro-[1,4]dioxino[2,3-f]quinazolin-10-yl)amino)phenyl)-3-(3-methoxyphenyl)urea] | 50 to 500
4 | COc1cccc(NC(=O)Nc2ccc(Nc3ncnc4cc(OC)c5c(c34)OCCO5)cc2Cl)c1 [Example 4, 1-(2-chloro-4-((5-methoxy-2,3-dihydro-[1,4]dioxino[2,3-f]quinazolin-10-yl)amino)phenyl)-3-(3-methoxyphenyl)urea] | < 50
5 | COc1cc2ncnc(Nc3ccc(NC(=O)Nc4ccccn4)c(Cl)c3)c2c2c1OCCO2 [Example 5, 1-(2-chloro-4-((5-methoxy-2,3-dihydro-[1,4]dioxino[2,3-f]quinazolin-10-yl)amino)phenyl)-3-(pyridin-2-yl)urea] | > 5000
6 | COc1cc2ncnc(Nc3ccc(NC(=O)Nc4ccccc4)c(Cl)c3)c2c2c1OCCO2 [Example 6, 1-(2-chloro-4-((5-methoxy-2,3-dihydro-[1,4]dioxino[2,3-f]quinazolin-10-yl)amino)phenyl)-3-phenylurea] | 50 to 500
7 | COc1cc2ncnc(Nc3ccc(NC(=O)Nc4ccc(F)cc4)c(Cl)c3)c2c2c1OCCO2 [Example 7, 1-(2-chloro-4-((5-methoxy-2,3-dihydro-[1,4]dioxino[2,3-f]quinazolin-10-yl)amino)phenyl)-3-(4-fluorophenyl)urea] | < 50
8 | COc1cc2ncnc(Nc3ccc(NC(=O)Nc4cc(C)no4)c(Cl)c3)c2c2c1OCCO2 [Example 8, 1-(2-chloro-4-((5-methoxy-2,3-dihydro-[1,4]dioxino[2,3-f]quinazolin-10-yl)amino)phenyl)-3-(3-methylisoxazol-5-yl)urea] | 50 to 500
9 | COc1cc2ncnc(Nc3ccc(NC(=O)NC(C)C)c(Cl)c3)c2c2c1OCCO2 [Example 9, 1-(2-chloro-4-((5-methoxy-2,3-dihydro-[1,4]dioxino[2,3-f]quinazolin-10-yl)amino)phenyl)-3-isopropylurea] | 50 to 500
10 | COc1cc(NC(=O)Nc2ccc(Nc3ncnc4cc(OC)c5c(c34)OCCO5)cc2Cl)ccn1 [Example 10, 1-(2-chloro-4-((5-methoxy-2,3-dihydro-[1,4]dioxino[2,3-f]quinazolin-10-yl)amino)phenyl)-3-(2-methoxypyridin-4-yl)urea] | < 50
11 | COc1cc2ncnc(Nc3ccc(NC(=O)Nc4ccc(C(F)(F)F)cc4F)c(Cl)c3)c2c2c1OCCO2 [Example 12, 1-(2-chloro-4-((5-methoxy-2,3-dihydro-[1,4]dioxino[2,3-f]quinazolin-10-yl)amino)phenyl)-3-(2-fluoro-4-(trifluoromethyl)phenyl)urea] | < 50
12 | COc1cc2ncnc(Nc3ccc(NC(=O)Nc4ccc(Oc5ccccc5)cc4)c(Cl)c3)c2c2c1OCCO2 [Example 13, 1-(2-chloro-4-((5-methoxy-2,3-dihydro-[1,4]dioxino[2,3-f]quinazolin-10-yl)amino)phenyl)-3-(4-(phenoxy)phenyl)urea] | > 5000
13 | COc1cc2ncnc(Oc3ccc(NC(=O)Nc4ccccc4)c(Cl)c3)c2c2c1OCCO2 [Example 14, 1-(2-chloro-4-((5-methoxy-2,3-dihydro-[1,4]dioxino[2,3-f]quinazolin-10-yl)oxy)phenyl)-3-phenylurea] | < 50
14 | COc1cc2ncnc(Oc3ccc(NC(=O)NC(C)C)c(Cl)c3)c2c2c1OCCO2 [Example 15, 1-(2-chloro-4-((5-methoxy-2,3-dihydro-[1,4]dioxino[2,3-f]quinazolin-10-yl)oxy)phenyl)-3-isopropylurea] | < 50
15 | COc1cc2ncnc(Oc3ccc(NC(=O)Nc4ccc(F)cc4)c(Cl)c3)c2c2c1OCCO2 [Example 16, 1-(2-chloro-4-((5-methoxy-2,3-dihydro-[1,4]dioxino[2,3-f]quinazolin-10-yl)oxy)phenyl)-3-(4-fluorophenyl)urea] | < 50
16 | COc1cc2ncnc(Oc3ccc(NC(=O)Nc4ccc(F)cc4F)c(F)c3)c2c2c1OCCO2 [Example 21, 1-(2,4-difluorophenyl)-3-(2-fluoro-4-((5-methoxy-2,3-dihydro-[1,4]dioxino[2,3-f]quinazolin-10-yl)oxy)phenyl)urea] | < 50
17 | COc1cc2ncnc(Oc3ccc(NC(=O)NC4CC4)c(Cl)c3)c2c2c1OCCO2 [Example 22, 1-(2-chloro-4-((5-methoxy-2,3-dihydro-[1,4]dioxino[2,3-f]quinazolin-10-yl)oxy)phenyl)-3-cyclopropylurea] | < 50
18 | COc1cccc(NC(=O)Nc2ccc(Oc3ncnc4cc(OC)c5c(c34)OCCO5)c(Cl)c2)c1 [Example 24, 1-(3-chloro-4-((5-methoxy-2,3-dihydro-[1,4]dioxino[2,3-f]quinazolin-10-yl)oxy)phenyl)-3-(3-methoxyphenyl)urea] | < 50
19 | COc1cc(NC(=O)Nc2ccc(Oc3ncnc4cc(OC)c5c(c34)OCCO5)c(Cl)c2)ccn1 [Example 26, 1-(3-chloro-4-((5-methoxy-2,3-dihydro-[1,4]dioxino[2,3-f]quinazolin-10-yl)oxy)phenyl)-3-(2-methoxypyridin-4-yl)urea] | < 50
20 | COc1cc2ncnc(Nc3ccc(NC(=O)NC4CCC4)c(Cl)c3)c2c2c1OCCO2 [Example 27, 1-(2-chloro-4-((5-methoxy-2,3-dihydro-[1,4]dioxino[2,3-f]quinazolin-10-yl)amino)phenyl)-3-cyclobutylurea] | < 50
21 | COc1cc2ncnc(Nc3ccc(NC(=O)NC4CCCC4)c(Cl)c3)c2c2c1OCCO2 [Example 28, 1-(2-chloro-4-((5-methoxy-2,3-dihydro-[1,4]dioxino[2,3-f]quinazolin-10-yl)amino)phenyl)-3-cyclopentylurea] | 50 to 500
22 | COc1cc2ncnc(Nc3ccc(NC(=O)NC4CCCCC4)c(Cl)c3)c2c2c1OCCO2 [Example 29, 1-(2-chloro-4-((5-methoxy-2,3-dihydro-[1,4]dioxino[2,3-f]quinazolin-10-yl)amino)phenyl)-3-cyclohexylurea] | 500 to 5000
23 | COc1cc2ncnc(Nc3ccc(NC(=O)NCCC(C)C)c(Cl)c3)c2c2c1OCCO2 [Example 30, 1-(2-chloro-4-((5-methoxy-2,3-dihydro-[1,4]dioxino[2,3-f]quinazolin-10-yl)amino)phenyl)-3-isopentylurea] | < 50
24 | O=C(Nc1ccc(Oc2ncnc3cc(OCCCN4CCOCC4)c4c(c23)OCCO4)cc1)Nc1cccc2ccccc12 [Example 31, 1-(4-((5-(3-morpholinopropoxy)-2,3-dihydro-[1,4]dioxino[2,3-f]quinazolin-10-yl)oxy)phenyl)-3-(naphthalen-1-yl)urea] | < 50
25 | COc1cc2ncnc(Oc3ccc(NC(=O)NC4CCCC4)c(Cl)c3)c2c2c1OCCO2 [Example 32, 1-(2-chloro-4-((5-methoxy-2,3-dihydro-[1,4]dioxino[2,3-f]quinazolin-10-yl)oxy)phenyl)-3-cyclopentylurea] | < 50
